Results on 44 molecules are retold here after ChEMBL document CHEMBL3414561, “Discovery of 4'-chloromethyl-2'-deoxy-3',5'-di-O-isobutyryl-2'-fluorocytidine (ALS-8176), a first-in-class RSV polymerase inhibitor for treatment of human respiratory syncytial virus infection” (J Med Chem, 2015).

Calls of active or inactive are those of the source. No cut-off for these calls is given here.

Data set [1] has as its system Respiratory syncytial virus. Description: Antiviral activity against Respiratory syncytial virus subgenomic replicon system in 395 HeLa cells assessed as reduction in viral replication after 7 days by renilla luciferase assay. The conditions noted are these: human respiratory syncytial virus, 168 h. The format is functional, organism-based. On the technique in general: In antiviral work, replicon cells carry a viral genome segment that copies itself.

Data set [2] in a line: Cytotoxicity against human HeLa cells assessed as cell viability by CellTiter-Glo luminescent assay. Format: cell-based.
A short description of data set [3]: Inhibition of Respiratory syncytial virus RNA polymerase in crude RSV RNP complex assessed as inhibition of [33P]CMP incorporation into RNA chain.
For data set [4], the target named is DNA-directed RNA polymerase, mitochondrial (Homo sapiens) (UniProt O00411). Description: Binding affinity to human mitochondrial RNA polymerase assessed as compound incorporation using [33P]RNA/DNA primer/templates used by […] gel electrophoresis.
DNA-directed RNA polymerase, mitochondrial (Homo sapiens), sequence (O00411 whole entry): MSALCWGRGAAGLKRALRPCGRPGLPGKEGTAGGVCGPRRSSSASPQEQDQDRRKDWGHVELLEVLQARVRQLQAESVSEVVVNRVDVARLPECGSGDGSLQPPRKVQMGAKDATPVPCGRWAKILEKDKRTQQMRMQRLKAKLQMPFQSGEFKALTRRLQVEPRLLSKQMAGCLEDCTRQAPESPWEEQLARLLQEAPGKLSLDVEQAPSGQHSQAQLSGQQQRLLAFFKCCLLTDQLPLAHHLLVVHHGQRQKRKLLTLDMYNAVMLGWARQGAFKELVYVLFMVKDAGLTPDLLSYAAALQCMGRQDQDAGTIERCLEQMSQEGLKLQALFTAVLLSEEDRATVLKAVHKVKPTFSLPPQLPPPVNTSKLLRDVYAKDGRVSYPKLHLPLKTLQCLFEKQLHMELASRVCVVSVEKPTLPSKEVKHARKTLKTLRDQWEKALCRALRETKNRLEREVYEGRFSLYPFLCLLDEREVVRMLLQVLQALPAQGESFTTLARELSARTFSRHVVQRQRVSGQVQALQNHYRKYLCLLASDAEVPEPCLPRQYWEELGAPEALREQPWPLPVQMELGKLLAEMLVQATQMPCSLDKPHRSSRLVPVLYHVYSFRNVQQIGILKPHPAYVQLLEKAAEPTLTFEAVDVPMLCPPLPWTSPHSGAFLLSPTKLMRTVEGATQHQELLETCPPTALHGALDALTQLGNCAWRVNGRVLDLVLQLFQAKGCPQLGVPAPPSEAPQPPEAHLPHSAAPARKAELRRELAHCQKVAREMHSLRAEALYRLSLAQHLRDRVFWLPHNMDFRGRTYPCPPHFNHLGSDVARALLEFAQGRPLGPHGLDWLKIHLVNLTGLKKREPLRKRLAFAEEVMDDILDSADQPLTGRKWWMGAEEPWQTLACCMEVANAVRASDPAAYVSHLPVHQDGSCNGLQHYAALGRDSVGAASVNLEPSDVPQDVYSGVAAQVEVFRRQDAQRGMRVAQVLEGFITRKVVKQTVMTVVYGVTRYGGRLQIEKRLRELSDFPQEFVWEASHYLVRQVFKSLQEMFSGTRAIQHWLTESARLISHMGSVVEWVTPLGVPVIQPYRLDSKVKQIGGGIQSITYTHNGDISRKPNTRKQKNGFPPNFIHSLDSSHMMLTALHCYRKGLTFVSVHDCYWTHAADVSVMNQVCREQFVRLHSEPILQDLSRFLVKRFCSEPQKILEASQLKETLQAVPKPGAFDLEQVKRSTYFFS
Data set [5] shares this target. Briefly: Inhibition of human mitochondrial RNA polymerase assessed as 13-mer product using [33P]RNA/DNA primer/templates used by […] gel electrophoresis.

Turning to `[N-]=[N+]=N[C@]1(CO)O[C@@H](n2ccc(N)nc2=O)C(F)(F)[C@@H]1O`, the EC50 in data set [1] is 750 nM. In addition, in data set [2], the CC50 was more than 100000 nM.
For `C#C[C@]1(COP(=O)(O)OP(=O)(O)OP(=O)(O)O)O[C@@H](n2ccc(N)nc2=O)[C@H](F)[C@@H]1O`, the IC50 in data set [3] worked out at 130 nM.
In the case of `C=C[C@]1(CO)O[C@@H](n2ccc(N)nc2=O)[C@H](F)[C@@H]1O`, the EC50 in data set [1] came out at 1910 nM. The CC50 in data set [2] is more than 100000 nM.
With `CCCCCCCC(=O)O[C@H]1[C@@H](F)[C@H](n2ccc(N)nc2=O)O[C@@]1(CO)CCl`, the EC50 in data set [1] is 220 nM. Also, in data set [2], the CC50 was more than 70000 nM.
For `CSC[C@]1(CO)O[C@@H](n2ccc(N)nc2=O)[C@H](F)[C@@H]1O`, the EC50 in data set [1] was 510 nM. Moreover, the CC50 in data set [2] was more than 63000 nM.
As to `Nc1ccn([C@@H]2O[C@@](COP(=O)(O)OP(=O)(O)OP(=O)(O)O)(C3CC3)[C@@H](O)[C@H]2F)c(=O)n1`, the concentration for half-maximal inhibition (IC50) in data set [3] was determined as 200 nM.
Take `[N-]=[N+]=N[C@]1(CO)O[C@@H](n2ccc(N)nc2=O)[C@H](O)[C@@H]1O` [4'-AZIDOCYTIDINE]: in data set [1], the EC50 came out at 670 nM. For the same molecule, the CC50 in data set [2] was more than 80000 nM.
Consider `[N-]=[N+]=N[C@]1(COP(=O)(O)OP(=O)(O)OP(=O)(O)O)O[C@@H](n2ccc(N)nc2=O)[C@@H](O)[C@@H]1O`, for which the IC50 in data set [3] came out at 200 nM.
For the molecule `[N-]=[N+]=N[C@]1(COP(=O)(O)OP(=O)(O)OP(=O)(O)O)O[C@@H](n2ccc(N)nc2=O)[C@H](F)[C@@H]1O`, the IC50 in data set [3] was found to be 100 nM. Besides, the outcome in data set [4] was Active. In data set [5], the inhibition result was “Active”.
Take `CO[C@]1(CO)O[C@@H](n2ccc(N)nc2=O)[C@H](F)[C@@H]1O`: in data set [1], the EC50 is 12700 nM. For the same molecule, the CC50 in data set [2] is more than 100000 nM.
Regarding `CSC[C@]1(COP(=O)(O)OP(=O)(O)OP(=O)(O)O)O[C@@H](n2ccc(N)nc2=O)[C@H](F)[C@@H]1O`, the IC50 in data set [3] was determined as 2700 nM.
As to `CCC[C@]1(COP(=O)(O)OP(=O)(O)OP(=O)(O)O)O[C@@H](n2ccc(N)nc2=O)[C@H](F)[C@@H]1O`, in data set [3], the IC50 turned out to be 2000 nM.
Turning to `CCCCCC(=O)OC[C@@]1(CCl)O[C@@H](n2ccc(N)nc2=O)[C@H](F)[C@@H]1OC(=O)CCCCC`, in data set [1], the EC50 came to 220 nM. Further, the cytotoxic concentration (CC50) in data set [2] is more than 100000 nM.
`C#C[C@]1(CO)O[C@@H](n2ccc(N)nc2=O)[C@H](F)[C@@H]1O`: in data set [1], the EC50 was found to be 1120 nM. Besides, in data set [2], the CC50 was more than 100000 nM.
The like results for `[N-]=[N+]=N[C@]1(CO)O[C@@H](n2ccc(N)nc2=O)[C@H](F)[C@@H]1O` were, in that order, 190 nM and more than 100000 nM.
On to `C[C@]1(CO)O[C@@H](n2ccc(N)nc2=O)[C@H](F)[C@@H]1O`, for which, in data set [1], the EC50 was 2140 nM. Also, the half-maximal cytotoxic concentration (CC50) in data set [2] is more than 100000 nM.
On to `C[C@]1(COP(=O)(O)OP(=O)(O)OP(=O)(O)O)O[C@@H](n2ccc(N)nc2=O)[C@H](F)[C@@H]1O`, for which the IC50 in data set [3] amounted to 10 nM.
In the case of `Nc1ccn([C@@H]2O[C@](CCl)(COP(=O)(O)OP(=O)(O)OP(=O)(O)O)[C@@H](O)[C@H]2O)c(=O)n1`, the IC50 in data set [3] was determined as 1600 nM.
Consider `CC(C)[C@H](N)C(=O)OC[C@@]1(CCl)O[C@@H](n2ccc(N)nc2=O)[C@H](F)[C@@H]1O`, for which, in data set [1], the EC50 worked out at 40 nM. Further, the CC50 in data set [2] is more than 100000 nM.
With `Nc1ccn([C@@H]2O[C@H](COP(=O)(O)OP(=O)(O)OP(=O)(O)O)[C@@H](O)[C@H]2F)c(=O)n1`, the outcome in data set [4] was Active. In data set [5], the inhibition entry was “Active”.
In the case of `CC(C)C(=O)O[C@H]1[C@@H](F)[C@H](n2ccc(N)nc2=O)O[C@@]1(CO)CCl`, the EC50 in data set [1] stood at 160 nM. The CC50 in data set [2] was more than 88000 nM.
Consider `CC(C)C(=O)OC[C@@]1(CCl)O[C@@H](n2ccc(N)nc2=O)[C@H](F)[C@@H]1O`, for which the EC50 in data set [1] is 100 nM. Besides, the CC50 in data set [2] is more than 90000 nM.
As for `CCCCCCCC(=O)OC[C@@]1(CCl)O[C@@H](n2ccc(N)nc2=O)[C@H](F)[C@@H]1O`, the EC50 in data set [1] stood at 30 nM. The CC50 in data set [2] is more than 100000 nM.
For `Nc1ccn([C@@H]2O[C@@](CO)(C3CC3)[C@@H](O)[C@H]2F)c(=O)n1` the same measures were 560 nM and more than 100000 nM.
Turning to `Nc1ccn([C@@H]2O[C@@](CO)(CCl)[C@@H](O)[C@@H]2F)c(=O)n1`, the EC50 in data set [1] was more than 100000 nM. Also, the CC50 in data set [2] is more than 100000 nM.
Take `C=CC[C@]1(COP(=O)(O)OP(=O)(O)OP(=O)(O)O)O[C@@H](n2ccc(N)nc2=O)[C@H](F)[C@@H]1O`: in data set [3], the IC50 was 90 nM.
As for `C=CC[C@]1(CO)O[C@@H](n2ccc(N)nc2=O)[C@H](F)[C@@H]1O`, the EC50 in data set [1] was 2640 nM. The CC50 in data set [2] was more than 100000 nM.
The like results for `Nc1ccn([C@@H]2O[C@@](CO)(CBr)[C@@H](O)[C@H]2F)c(=O)n1` were, in that order, 480 nM and more than 100000 nM.
In the case of `Nc1ccn([C@@H]2O[C@](CBr)(COP(=O)(O)OP(=O)(O)OP(=O)(O)O)[C@@H](O)[C@H]2F)c(=O)n1`, the IC50 in data set [3] was 150 nM.
Consider `Nc1ccn([C@@H]2O[C@H](COP(=O)(O)OP(=O)(O)OP(=O)(O)O)[C@@H](O)[C@@H]2O)c(=O)n1`, for which the result in data set [4] was Active. Besides, the inhibition entry in data set [5] was “Active”.
Consider `Nc1ccn([C@@H]2O[C@@](CO)(CCl)[C@@H](O)[C@H]2O)c(=O)n1`, for which, in data set [1], the EC50 is more than 100000 nM. The CC50 in data set [2] was more than 100000 nM.
Regarding `CCCCCCCCCCCC(=O)O[C@H]1[C@@H](F)[C@H](n2ccc(N)nc2=O)O[C@@]1(CO)CCl`, the EC50 in data set [1] was 270 nM. Moreover, in data set [2], the CC50 is more than 89000 nM.
As for `Nc1ccn([C@@H]2O[C@@](CO)(CCl)[C@@H](O)C2(F)F)c(=O)n1`, the EC50 in data set [1] turned out to be 65000 nM. In data set [2], the CC50 amounted to 62000 nM.
For the molecule `CCCCC(=O)OC[C@@]1(CCl)O[C@@H](n2ccc(N)nc2=O)[C@H](F)[C@@H]1OC(=O)CCCC`, the EC50 in data set [1] was determined as 130 nM. Further, the CC50 in data set [2] was more than 100000 nM.
As to `CCC(=O)OC[C@@]1(CCl)O[C@@H](n2ccc(N)nc2=O)[C@H](F)[C@@H]1OC(=O)CC`, the EC50 in data set [1] came out at 40 nM. Further, the CC50 in data set [2] was more than 100000 nM.
Regarding `CO[C@]1(COP(=O)(O)OP(=O)(O)OP(=O)(O)O)O[C@@H](n2ccc(N)nc2=O)[C@H](F)[C@@H]1O`, the half-maximal inhibitory concentration (IC50) in data set [3] turned out to be 70 nM.
Turning to `[N-]=[N+]=N[C@]1(CO)O[C@@H](n2ccc(N)nc2=O)[C@@H](O)[C@@H]1O`, the EC50 in data set [1] was found to be 520 nM. Further, in data set [2], the CC50 was more than 100000 nM.
As to `CCC[C@]1(CO)O[C@@H](n2ccc(N)nc2=O)[C@H](F)[C@@H]1O`, the EC50 in data set [1] is 2690 nM. Besides, the CC50 in data set [2] was more than 100000 nM.
On to `C=C[C@]1(COP(=O)(O)OP(=O)(O)OP(=O)(O)O)O[C@@H](n2ccc(N)nc2=O)[C@H](F)[C@@H]1O`, for which the IC50 in data set [3] was 90 nM.
As to `CCCCCCCC(=O)OC[C@@]1(CCl)O[C@@H](n2ccc(N)nc2=O)[C@H](F)[C@@H]1OC(=O)CCCCCCC`, the EC50 in data set [1] was 280 nM. Also, the CC50 in data set [2] was more than 66000 nM.
Turning to `Nc1ccn([C@@H]2O[C@H](COP(=O)(O)OP(=O)(O)OP(=O)(O)O)[C@@H](O)C2(F)F)c(=O)n1`, the outcome in data set [4] was Active. Besides, the inhibition result in data set [5] was “Active”.
With `[N-]=[N+]=N[C@]1(COP(=O)(O)OP(=O)(O)OP(=O)(O)O)O[C@@H](n2ccc(N)nc2=O)[C@H](O)[C@@H]1O`, the IC50 in data set [3] was 240 nM.
As to `Nc1ccn([C@@H]2O[C@@](CO)(CCl)[C@@H](O)[C@@H]2O)c(=O)n1`, the EC50 in data set [1] is more than 100000 nM. Moreover, the CC50 in data set [2] was more than 100000 nM.
As for `Nc1ccn([C@@H]2O[C@](CCl)(COP(=O)(O)OP(=O)(O)OP(=O)(O)O)[C@@H](O)[C@@H]2F)c(=O)n1`, the IC50 in data set [3] is 4900 nM.

As usually defined, the EC50 is the concentration needed to bring the measured effect to its halfway point. What is called CC50 is the concentration at which the toxic effect on the cells reaches its halfway point. By IC50 is commonly meant the concentration at which inhibition is half-maximal.
